Target: Shp2 (Homo sapiens (Human), UniProt Q06124)
Test: PTP activity assay (DiFMUP substrate) with GST-Shp2
Format: biochemical
Details: for IC50: Table II, Shp2; for % PTP activity: at 20 μM
Text: All constructs were verified by DNA sequencing.
Recombinant DEP1 was from Abcam.

Shp2, sequence (Q06124 205-593): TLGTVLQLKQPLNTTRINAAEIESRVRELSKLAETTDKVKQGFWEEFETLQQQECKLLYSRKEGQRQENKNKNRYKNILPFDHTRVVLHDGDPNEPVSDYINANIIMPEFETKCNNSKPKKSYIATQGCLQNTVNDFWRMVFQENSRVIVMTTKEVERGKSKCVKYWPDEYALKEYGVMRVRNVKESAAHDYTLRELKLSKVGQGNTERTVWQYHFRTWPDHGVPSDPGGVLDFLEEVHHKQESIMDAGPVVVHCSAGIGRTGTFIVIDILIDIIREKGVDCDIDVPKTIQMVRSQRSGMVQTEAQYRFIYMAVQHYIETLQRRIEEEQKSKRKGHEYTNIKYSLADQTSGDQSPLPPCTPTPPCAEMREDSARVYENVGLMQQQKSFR

| Compound | IC50 | % PTP activity |
| --- | --- | --- |
| CCOC(=O)c1cccc(N/C=C2\C(=O)Nc3ccc(S(=O)(=O)NC(C)C)cc32)c1 [RPM302, 3-[(5-Isopropylsulfamoyl-2-oxo-1,2-dihydro-indol-3-ylidenemethyl)amino]benzoic acid ethyl ester] | 33 to 100 µM | 51 ± 7% (2) at 20 μM |
| CC(C)NS(=O)(=O)c1ccc2c(c1)/C(=C/Nc1ccccc1[N+](=O)[O-])C(=O)N2 [RPM303, 3-[(2-Nitrophenylamino)methylene]-2-oxo-2,3-dihydro-1H-indole-5-sulfonic acid isopropylamide] | – | 46 ± 1% (2) 20 μM |
| CC(C)NS(=O)(=O)c1ccc2c(c1)/C(=C/Nc1cccc(C(=O)O)c1)C(=O)N2 [RPM304, 3-[(5-Isopropylsulfamoyl-2-oxo-1,2-dihydro-indol-3-ylidenemethyl)amino]benzoic acid] | 33 to 100 µM | 82.31% (1) At 20 μM |
| CC(C)NS(=O)(=O)c1ccc2c(c1)/C(=C/Nc1ccc(C(=O)O)cc1)C(=O)N2 [RPM305, 4-[(5-Isopropylsulfamoyl-2-oxo-1,2-dihydro-indol-3-ylidenemethyl)amino]benzoic acid] | 33 to 100 µM | 56.77% (1) at 20 μM |
| O=C1Cc2cc(S(=O)(=O)NCc3ccc(Cl)cc3)ccc2N1 [RPM307, 2-Oxo-2,3-dihydro-1H-indole-5-sulfonic acid 4-chloro-benzylamide] | – | 39 ± 10% (20 at 20 μM |
| O=C1Nc2ccc(S(=O)(=O)NCc3ccc(Cl)cc3)cc2/C1=C/Nc1ccccc1[N+](=O)[O-] [RPM310] | – | 66.20% (1) At 20 μM |
| O=C1Nc2ccc(C(=O)O)cc2/C1=N/Nc1ccccc1F [RPM319] | > 100 µM | 49 ± 4% (2) At 20 μM |
| CCc1ccccc1N/N=C1\C(=O)Nc2ccc(C(=O)O)cc21 [RPM320, 3-[(2-Ethylphenyl)hydrazono]-2-oxo-2,3-dihydro-1H-indole-5-carboxylic acid] | – | 44 ± 5% (2) At 20 μM |
| CC(C)NS(=O)(=O)c1ccc2c(c1)/C(=N/Nc1cccc(C(N)=O)c1)C(=O)N2 [RPM325, 3-[N′-(5-Isopropylsulfamoyl-2-oxo-1,2-dihydro-indol-3-ylidene)hydrazino]benzamide] | 33 to 100 µM | 40 + 4% (2) at 20 μM |
| CC(C)NS(=O)(=O)c1ccc2c(c1)/C(=N/Nc1cccc(C(=O)NCCN(C)C)c1)C(=O)N2 [RPM326, N-(2-Dimethylamino-ethyl)-3-[N′-(5-isopropylsulfamoyl-2-oxo-1,2-dihydro-indol-3-ylidene)hydrazino]benzamide] | – | 57 + 13% (2) at 20 μM |
| COCCNC(=O)c1cccc(N/N=C2\C(=O)Nc3ccc(S(=O)(=O)NC(C)C)cc32)c1 [RPM327, 3-[N′-(5-Isopropylsulfamoyl-2-oxo-1,2-dihydro-indol-3-ylidene)hydrazino]-N-(2-methoxyethyl)benzamide] | – | 44 + 7% (2) at 20 μM |
| CC(C)NS(=O)(=O)c1ccc2c(c1)/C(=N/Nc1cccc(C(=O)NCc3ccccc3)c1)C(=O)N2 [RPM328, N-Benzyl-3-[N′-(5-isopropylsulfamoyl-2-oxo-1,2-dihydro-indol-3-ylidene)hydrazino]benzamide] | – | 47 ± 3% (2) at 20 μM |
| CNC(=O)c1cccc(N/N=C2\C(=O)Nc3ccc(S(=O)(=O)NC(C)C)cc32)c1 [RPM330, 3-[N′-(5-Isopropylsulfamoyl-2-oxo-1,2-dihydro-indol-3-ylidene)hydrazino]-N-methylbenzamide] | – | 47 ± 1% (2) at 20 μM |
| CCNC(=O)c1cccc(N/N=C2\C(=O)Nc3ccc(S(=O)(=O)NC(C)C)cc32)c1 [RPM331, N-Ethyl-3-[N′-(5-isopropylsulfamoyl-2-oxo-1,2-dihydro-indol-3-ylidene)hydrazino]benzamide] | – | 45 + 2% 92) at 20 μM |
